Reference: ChEMBL document CHEMBL3632523, “Evaluation of Improved Glycogen Synthase Kinase-3α Inhibitors in Models of Acute Myeloid Leukemia” (J Med Chem, 2015)
In brackets after ≈: the same amount, converted by molar mass. Activity calls are given as the source filed them. The calls are words filed in the database; no cut-off is given here.

What was measured:
[1] = Aqueous solubility of the compound in water by HPLC based shake flask method; format: physicochemical
Danio rerio [2] = test: Toxicity in wild type zebrafish embryo in E3 medium assessed as induction of lethality treated at <60 uM dosed 24 hrs of post fertilization observed on 96 to 120 hrs of post fertilization; format: organism-based; settings: in vivo
Danio rerio [3] = test: Induction of morphological abnormality in wild type zebrafish embryo in E3 medium dosed 24 hrs of post fertilization; format: functional, organism-based
[4] = biological target: T1, Glycogen synthase kinase-3 alpha (Homo sapiens, UniProt P49840); settings: NB-4, 5 to 10 uM
Target sequence in this assay (P49840 2-483 limits assumed): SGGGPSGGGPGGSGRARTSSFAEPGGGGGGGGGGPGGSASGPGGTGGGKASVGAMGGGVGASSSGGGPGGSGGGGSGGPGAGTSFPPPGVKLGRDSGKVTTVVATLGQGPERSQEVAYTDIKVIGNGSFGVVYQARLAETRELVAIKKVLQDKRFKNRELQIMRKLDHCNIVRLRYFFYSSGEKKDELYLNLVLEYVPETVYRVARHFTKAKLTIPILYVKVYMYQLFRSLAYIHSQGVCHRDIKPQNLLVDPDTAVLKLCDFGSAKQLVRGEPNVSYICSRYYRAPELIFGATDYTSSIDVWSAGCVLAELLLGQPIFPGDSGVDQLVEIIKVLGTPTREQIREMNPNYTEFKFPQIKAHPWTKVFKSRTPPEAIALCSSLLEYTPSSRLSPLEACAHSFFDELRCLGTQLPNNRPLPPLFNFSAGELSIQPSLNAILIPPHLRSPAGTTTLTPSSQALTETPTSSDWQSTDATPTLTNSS
Description: Inhibition of GSK-3 alpha in human NB4 cells assessed as CD11c expression at 5 to 10 uM after 6 days by flow cytometry

[5] = biological target: T1, Glycogen synthase kinase-3 alpha; settings: HL-60, 5 to 10 uM
Target sequence in this assay (P49840 2-483 limits assumed): as above
Description: Inhibition of GSK-3 alpha in human HL-60 cells assessed as decreased nuclear to cytoplasmic ratio at 5 to 10 uM after 6 days by May-Grunwald Giemsa staining based light microscopy

[6] = biological target: T1, Glycogen synthase kinase-3 alpha; settings: HL-60, 5 to 10 uM; remark: listed apart in the source
Target sequence in this assay (P49840 2-483 limits assumed): as above
Description: Inhibition of GSK-3 alpha in human HL-60 cells assessed as increased vacuolization at 5 to 10 uM after 6 days by May-Grunwald Giemsa staining based light microscopy

[7] = biological target: T1, Glycogen synthase kinase-3 alpha; settings: HL-60, 5 to 10 uM; remark: listed apart in the source
Target sequence in this assay (P49840 2-483 limits assumed): as above
Description: Inhibition of GSK-3 alpha in human HL-60 cells assessed as CD11b expression at 5 to 10 uM after 6 days by flow cytometry

[8] = biological target: T1, Glycogen synthase kinase-3 alpha
Target sequence in this assay (P49840 whole entry): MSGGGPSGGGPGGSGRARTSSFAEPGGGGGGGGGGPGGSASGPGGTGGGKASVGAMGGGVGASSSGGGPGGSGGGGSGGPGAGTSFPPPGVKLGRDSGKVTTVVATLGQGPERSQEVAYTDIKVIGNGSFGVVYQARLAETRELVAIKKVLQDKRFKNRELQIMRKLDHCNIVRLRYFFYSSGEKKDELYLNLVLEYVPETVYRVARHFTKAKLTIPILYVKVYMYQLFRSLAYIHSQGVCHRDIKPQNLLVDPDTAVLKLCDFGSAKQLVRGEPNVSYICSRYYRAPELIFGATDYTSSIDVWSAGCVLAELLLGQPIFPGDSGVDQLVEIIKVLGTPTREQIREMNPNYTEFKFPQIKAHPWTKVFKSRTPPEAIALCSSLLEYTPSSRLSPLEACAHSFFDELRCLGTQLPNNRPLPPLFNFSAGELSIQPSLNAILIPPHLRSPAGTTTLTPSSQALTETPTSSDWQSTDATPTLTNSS

[9] = biological target: T1, Glycogen synthase kinase-3 alpha; settings: NB-4, 5 to 10 uM; remark: listed apart in the source
Target sequence in this assay (P49840 2-483 limits assumed): as the sequence (P49840 2-483 limits assumed) above
Description: Inhibition of GSK-3 alpha in human NB4 cells assessed as CD11b expression at 5 to 10 uM after 6 days by flow cytometry

[10] = biological target: Glycogen synthase kinase-3 beta (Homo sapiens, UniProt P49841)
Danio rerio [11] = test: Induction of morphological abnormality wild type zebrafish embryo in E3 medium assessed as stunted and crooked tail phenotype at >30 uM dosed 24 hrs of post fertilization; format: functional, organism-based
[12] = biological target: T1, Glycogen synthase kinase-3 alpha; settings: NB-4, 5 to 10 uM; remark: listed apart in the source
Target sequence in this assay (P49840 2-483 limits assumed): as above
Description: Inhibition of GSK-3 alpha in human NB4 cells assessed as decreased nuclear to cytoplasmic ratio at 5 to 10 uM after 6 days by May-Grunwald Giemsa staining based light microscopy

[13] = biological target: T1, Glycogen synthase kinase-3 alpha; settings: NB-4, 5 to 10 uM; remark: listed apart in the source
[14] = biological target: T1, Glycogen synthase kinase-3 alpha; settings: HL-60, 5 to 10 uM; remark: listed apart in the source
Description: Inhibition of GSK-3 alpha in human HL-60 cells assessed as CD14 expression at 5 to 10 uM after 6 days by flow cytometry

[15] = biological target: T1, Glycogen synthase kinase-3 alpha; settings: NB-4, 5 to 10 uM; remark: listed apart in the source
Description: Inhibition of GSK-3 alpha in human NB4 cells assessed as increased vacuolization at 5 to 10 uM after 6 days by May-Grunwald Giemsa staining based light microscopy

Danio rerio [16] = test: Inhibition of embryonic development in wild type zebrafish embryo in E3 medium assessed as beta catenin activation at >30 uM dosed 24 hrs of post fertilization; format: functional, organism-based
[17] = biological target: T1, Glycogen synthase kinase-3 alpha; settings: HL-60, 5 to 10 uM; remark: listed apart in the source
[18] = biological target: T1, Glycogen synthase kinase-3 alpha; settings: HL-60, 5 to 10 uM; remark: listed apart in the source
Description: Inhibition of GSK-3 alpha in human HL-60 cells assessed as CD11c expression at 5 to 10 uM after 6 days by flow cytometry

[19] = biological target: T1, Glycogen synthase kinase-3 alpha; settings: NB-4, 5 to 10 uM; remark: listed apart in the source
Description: Inhibition of GSK-3 alpha in human NB4 cells assessed as CD14 expression at 5 to 10 uM after 6 days by flow cytometry

Danio rerio [20] = test: Induction of morphological abnormality in wild type zebrafish embryo in E3 medium at 1 to 15 uM dosed 24 hrs of post fertilization; format: functional, organism-based
Sus scrofa [21] = organism: Sus scrofa; settings: 100 nM
Sus scrofa [22] = organism: Sus scrofa; settings: 100 nM; remark: listed apart in the source

Sequence of Glycogen synthase kinase-3 beta (P49841 whole entry): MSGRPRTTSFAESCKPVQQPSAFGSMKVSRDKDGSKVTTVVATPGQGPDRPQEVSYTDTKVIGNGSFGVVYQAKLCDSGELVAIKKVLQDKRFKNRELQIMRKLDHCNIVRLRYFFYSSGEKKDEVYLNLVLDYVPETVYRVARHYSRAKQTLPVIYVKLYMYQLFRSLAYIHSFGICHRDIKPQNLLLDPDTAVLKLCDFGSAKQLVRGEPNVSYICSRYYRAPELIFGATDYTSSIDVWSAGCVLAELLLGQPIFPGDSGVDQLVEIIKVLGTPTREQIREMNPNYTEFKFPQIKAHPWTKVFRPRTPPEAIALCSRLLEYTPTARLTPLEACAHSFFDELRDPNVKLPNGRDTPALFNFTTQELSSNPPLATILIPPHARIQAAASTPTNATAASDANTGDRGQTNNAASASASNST

Q: Which solubility thermodynamic [1] does the source give for `N#Cc1cc(F)ccc1-c1ccc(CSc2nnc(-c3ccc4c(c3)OCCO4)o2)cc1` here?
A: 1 µM (≈ 0.445 µg/mL)

Q: For `Fc1ccc(-c2ccc(CSc3nnc(-c4ccc5c(c4)OCCO5)o3)cn2)cn1`, which solubility thermodynamic [1] is on record?
A: 1 µM (≈ 0.422 µg/mL)

Q: For `N#Cc1ccc(-c2ccc(CSc3nnc(-c4ccc5c(c4)OCCO5)o3)cc2)nc1`, which Activity (Danio rerio [2]) is on record?
A: Non-toxic

Q: And the solubility thermodynamic [1]?
A: 181 µM (≈ 77.6 µg/mL)

Q: And the Activity (Danio rerio [3])?
A: inactive

Q: What does the source list for `NC(=O)c1cc(F)ccc1-c1ccc(CSc2nnc(-c3ccc4c(c3)OCCO4)o2)cc1`?
A: inhibition [4]: Active; inhibition [5]: Active; inhibition [6]: Active; inhibition [7]: Active; IC50 [8]: 42 nM; inhibition [9]: Active; IC50 [10]: 140 nM; Activity (Danio rerio [11]): Active; Activity (Danio rerio [2]): Non-toxic; inhibition [12]: Active; inhibition [13]: Active; inhibition [14]: Active; solubility thermodynamic [1]: 73 µM (≈ 33.8 µg/mL); inhibition [15]: Active; Activity (Danio rerio [16]): Active; inhibition [17]: Active; inhibition [18]: Active; inhibition [19]: Active; Activity (Danio rerio [20]): inactive

Q: Which solubility thermodynamic [1] does the source give for `Cc1ccc(-c2ccc(CSc3nnc(-c4ccc5c(c4)OCCO5)o3)cc2)nc1` here?
A: 1 µM (≈ 0.417 µg/mL)

Q: Which solubility thermodynamic [1] does the source give for `Fc1ccc(-c2ccc(CSc3nnc(-c4ccc5c(c4)OCCO5)o3)cc2)cn1` here?
A: 17 µM (≈ 7.16 µg/mL)

Q: Which solubility thermodynamic [1] does the source give for `Cc1ccc(-c2ccc(CSc3nnc(-c4ccc5c(c4)OCCO5)o3)cc2)cn1` here?
A: < 1 µM

Q: With `N#Cc1cc(F)ccc1-c1ccc(CS(=O)(=O)c2nnc(-c3ccc4c(c3)OCCO4)o2)cc1` as the compound, how does the inhibition (Sus scrofa [21]) read?
A: 0%

Q: What about the inhibition (Sus scrofa [22]) of the same compound?
A: 0%

Q: With `N#Cc1ccc(-c2ccc(CSc3nnc(-c4ccc5c(c4)OCCO5)o3)cc2)cn1` as the compound, how does the solubility thermodynamic [1] read?
A: 50 µM (≈ 21.4 µg/mL)
